Test results reported in patent US11591326B2, “Inhibitors of protein arginine methyltransferase 5 (PRMT5), pharmaceutical products thereof, and methods thereof” (PHARMABLOCK SCIENCES (NANJING), INC., priority 2018, dated 2023).
Where two headings read alike, the source gives them in different places.

Key:
BT474 = experiment: Breast cancer panel proliferation inhibition, BT474; type: cell-based; details: Homo sapiens
Experimental: (§1) Inhibitory ability of compounds synthesized on the proliferation of three panels of cancer cell lines, including 5 breast cancer, 6 liver cancer, and 3 lung cancer cell lines were evaluated. Exponentially growing cells were seeded in the media of choice at various cell densities in 384-well plates with 20 ul per well and incubated overnight at 37° C., 5% CO2 incubator. Compounds were prepared as 10-point, 3-fold serial dilutions in DMSO, beginning at 6 mM. 1 μl of DMSO solutions from the compound stock plates were added to 99 ul of cell media (final top concentration of compound in the assay was 30 uM and the final concentration of DMSO was 0.5%). 20 μL of compound solutions in media were added to each well of plates with cells seeded. After adding compound solutions, assay plates were incubated for 8 and 12 days, respectively, at 37° C., 5% CO2. During this incubation period, cell media was changed every 4 days. After removing old media from cell plates, 40 ul of media with testing compounds dissolved, which were prepared by adding 1 ul of compound DMSO serial solutions to 199 ul of cell media, were added to the assay plates with the same layout as they were initially prepared. After 8 or 12 days, cell viability was measured using the CellTiter-Glo assay kit from Promega (Madison, Wis., USA) by quantitating the ATP present in the cell cultures. 20 μL of CellTiter-Glo reagent was added to each well of the cell plates. Luminescence was read after 10 minute of incubation with the Envision multiple plate reader from PerkinElmer (Waltham, Mass., USA). The concentrations of compounds inhibiting cell viability by 50% (IC50 values) were determined using a sigmoidal dose-response model (variable slopes, four parameters) in Prism 7 (La Jolla, Calif., USA).

MDA-MB-453 = experiment: Breast cancer panel proliferation inhibition, MDA-MB-453; type: cell-based; details: Homo sapiens
Experimental: as §1

MDA-MB-468 = experiment: Breast cancer panel proliferation inhibition, MDA-MB-468; type: cell-based; details: Homo sapiens
Experimental: as §1

Hep G2 = experiment: Liver cancer panel proliferation inhibition, Hep G2; type: cell-based; details: Homo sapiens
Experimental: as §1

Huh1 = experiment: Liver cancer panel proliferation inhibition, Huh1; type: cell-based; details: Homo sapiens
Experimental: as §1

Huh7 = experiment: Liver cancer panel proliferation inhibition, Huh7; type: cell-based; details: Homo sapiens
Experimental: as §1

SNU398 = experiment: Liver cancer panel proliferation inhibition, SNU398; type: cell-based; details: Homo sapiens
Experimental: as §1

SNU475 = experiment: Liver cancer panel proliferation inhibition, SNU475; type: cell-based; details: Homo sapiens
Experimental: as §1

MHCC-97H = experiment: Liver cancer panel proliferation inhibition, MHCC-97H; type: cell-based; details: Homo sapiens, MHCC97H
Experimental: as §1

EBC-1 = experiment: Lung cancer panel proliferation inhibition, EBC-1; type: cell-based; details: Homo sapiens
Experimental: as §1

HCC827 = experiment: Lung cancer panel proliferation inhibition, HCC827; type: cell-based; details: Homo sapiens
Experimental: as §1

[1] = Pharmacokinetic study in rat; type: in vivo, Male SD rats; details: male, SD; for plasma clearance / Vd: 2 mg/kg, Rat PK (IV) 2 mpk; for plasma clearance: read-out: Clint (converted); for Vd / AUC(0-t) / Cmax / Tmax / bioavailability / half-life: plasma; for Vd: read-out: Vss; for AUC(0-t) / Cmax / Tmax / bioavailability / half-life: 10 mg/kg, Rat PK (PO) 10 mpk; for half-life: read-out: T½ (converted)
Experimental: Male SD rats (185-265 g; purchased from Shanghai SLAC laboratory animal CO. LTD; n=18, with 3 per compound) were treated with a single dose of compounds being tested at 2 mg/kg by intravenous tail-vein injection and 10 mg/kg by oral gavage administration, with both doses formulated in 5% DMSO+45% PEG400 in water. Animals upon PO administration were fasted overnight and fed 4 hours after dosing. Animals upon IV administration were free access to food and water. The study was performed in accordance with the guidelines and standards of the Association for Assessment and Accreditation of Laboratory Animal Care (AAALAC International) and the National Institutes of Health.
The animal is restrained manually. Approximately 150 μL whole blood/time point is collected in K2EDTA tube via tail vein. Blood sample will be put on ice and centrifuged at 2000 g for 5 min to obtain plasma sample within 15 minutes. Plasma samples were stored at approximately −70° C. until analysis. An aliquot of 20 μL sample was added with 200 μL IS (Diclofenac, 100 ng/mL) in ACN. The mixture was vortexed for 10 min and centrifuged at 5800 rpm for 10 min. An aliquot of 1 μL supernatant was injected for LC-MS/MS analysis. For 10×-diluted sample, an aliquot of 2 μL sample was added with 18 μL blank plasma. The sample preparation procedure is same with no-diluted sample. Standard calibration curves were constructed by analyzing a series of control plasma aliquots containing Diclofenac (100 ng/mL) as an internal standard and 1.0-3,000 ng/mL testing compounds. Compound concentrations were determined with UPLC-MS/MS-22 (Triple Quad™ 6500).

[2] = BT-474, 192 h, BT474, 8 days, read-out: IC50 (μM) 8 days
[3] = BT-474, 288 h, BT474, 12 days, read-out: IC50 (μM) 12 days
[4] = 192 h, MDA-MB-453, 8 days, read-out: IC50 (μM) 8 days
[5] = 288 h, MDA-MB-453, 12 days, read-out: IC50 (μM) 12 days
[6] = 192 h, MDA-MB-468, 8 days, read-out: IC50 (μM) 8 days
[7] = 288 h, MDA-MB-468, 12 days, read-out: IC50 (μM) 12 days
[8] = HepG2, 192 h, Hep G2, 8 days, read-out: IC50 (μM) 8 days
[9] = HepG2, 288 h, Hep G2, 12 days, read-out: IC50 (μM) 12 days
[10] = HuH-1, 192 h, Huh1, 8 days, read-out: IC50 (μM) 8 days
[11] = HuH-1, 288 h, Huh1, 12 days, read-out: IC50 (μM) 12 days
[12] = Huh-7, 192 h, Huh7, 8 days, read-out: IC50 (μM) 8 days
[13] = Huh-7, 288 h, Huh7, 12 days, read-out: IC50 (μM) 12 days
[14] = SNU-398, 192 h, SNU398, 8 days, read-out: IC50 (μM) 8 days
[15] = SNU-398, 288 h, SNU398, 12 days, read-out: IC50 (μM) 12 days
[16] = SNU-475, 192 h, SNU475, 8 days, read-out: IC50 (μM) 8 days
[17] = SNU-475, 288 h, SNU475, 12 days, read-out: IC50 (μM) 12 days
[18] = 192 h, 8 days, read-out: IC50 (μM) 8 days
[19] = 288 h, 12 days, read-out: IC50 (μM) 12 days
[20] = 192 h, EBC-1, 8 days, read-out: IC50 (μM) 8 days
[21] = 288 h, EBC-1, 12 days, read-out: IC50 (μM) 12 days
[22] = 192 h, HCC827, 8 days, read-out: IC50 (μM) 8 days
[23] = 288 h, HCC827, 12 days, read-out: IC50 (μM) 12 days

Work on CC(=O)N1CCC(Nc2ccc3c(c2)C(=O)N(C[C@H](O)CN2CCc4ccccc4C2)CC3)CC1 [Compound 24a, (R)-7-((1-acetylpiperidin-4-yl)amino)-2-(3-(3,4-dihydroisoquinolin-2(1H)-yl)-2-hydroxypropyl)-3,4-dihydroisoquinolin-1(2H)-one] yielded an IC50 (BT474; [2]) of 0.11 µM, an IC50 (BT474; [3]) of 0.057 µM and an IC50 (MDA-MB-453; [4]) of 0.28 µM. For the same compound, the IC50 (MDA-MB-453; [5]) was 0.19 µM, the IC50 (MDA-MB-468; [6]) was 0.042 µM and the IC50 (MDA-MB-468; [7]) was 0.0041 µM. For the same compound, the IC50 (Hep G2; [8]) was 2.87 µM, the IC50 (Hep G2; [9]) was 0.77 µM and the IC50 (Huh1; [10]) was 0.44 µM. It also gave an IC50 (Huh1; [11]) of 0.041 µM, an IC50 (Huh7; [12]) of 0.28 µM and an IC50 (Huh7; [13]) of 0.072 µM. The IC50 (SNU398; [14]) was 0.54 µM, the IC50 (SNU398; [15]) was 0.25 µM and the IC50 (SNU475; [16]) was 0.21 µM. It also gave an IC50 (SNU475; [17]) of 0.32 µM, an IC50 (MHCC-97H; [18]) of 0.02 µM and an IC50 (MHCC-97H; [19]) of 0.029 µM. For the same compound, the IC50 (EBC-1; [20]) was 0.025 µM, the IC50 (EBC-1; [21]) was 0.03 µM and the IC50 (HCC827; [22]) was 0.19 µM. The IC50 (HCC827; [23]) was 0.11 µM, the plasma clearance [1] was 1.9 L/h/kg and the Vd [1] was 7.15 ± 2.86 L/kg. For the same compound, the AUC(0-t) [1] was 3.28 ± 0.805 µg·h/mL, the Cmax [1] was 0.798 ± 0.247 µg/mL and the Tmax [1] was 1.17 ± 0.764 h. For the same compound, the bioavailability [1] was 62 ± 15.1% and the half-life [1] was 3.13 ± 0.415 h.

With CC(=O)N1CCC(Nc2ccc3c(c2)C(=O)N(C[C@H](O)CN2CCc4ccccc4C2)CCO3)CC1 [Compound 52a, (R)-7-((1-acetylpiperidin-4-yl)amino)-4-(3-(3,4-dihydroisoquinolin-2(1H)-yl)-2-hydroxypropyl)-3,4-dihydrobenzo[f][1,4]oxazepin-5(2H)-one] the IC50 (BT474; [2]) was 0.041 µM, the IC50 (BT474; [3]) was 0.03 µM and the IC50 (MDA-MB-453; [4]) was 0.14 µM. It also gave an IC50 (MDA-MB-453; [5]) of 0.06 µM, an IC50 (MDA-MB-468; [6]) of 0.022 µM and an IC50 (MDA-MB-468; [7]) of 0.0038 µM. The IC50 (Hep G2; [8]) was 3.09 µM, the IC50 (Hep G2; [9]) was 0.97 µM and the IC50 (Huh1; [10]) was 0.54 µM. For the same compound, the IC50 (Huh1; [11]) was 0.075 µM, the IC50 (Huh7; [12]) was 0.26 µM and the IC50 (Huh7; [13]) was 0.092 µM. The IC50 (SNU398; [14]) was 0.45 µM, the IC50 (SNU398; [15]) was 0.12 µM and the IC50 (SNU475; [16]) was 0.29 µM. The IC50 (SNU475; [17]) was 0.35 µM, the IC50 (MHCC-97H; [18]) was 0.023 µM and the IC50 (MHCC-97H; [19]) was 0.024 µM. The IC50 (EBC-1; [20]) was 0.028 µM, the IC50 (EBC-1; [21]) was 0.031 µM and the IC50 (HCC827; [22]) was 0.16 µM. It also gave an IC50 (HCC827; [23]) of 0.089 µM, a plasma clearance [1] of 2.12 L/h/kg and a Vd [1] of 5.02 ± 0.389 L/kg. It also gave an AUC(0-t) [1] of 2.26 ± 0.764 µg·h/mL, a Cmax [1] of 0.563 ± 0.233 µg/mL and a Tmax [1] of 1.33 ± 0.577 h. The bioavailability [1] was 48.1 ± 16.1% and the half-life [1] was 3.02 ± 0.413 h.

Compound CC(=O)N1CCC(Nc2cc(C(=O)NC[C@H](O)CN3CCc4ccccc4C3)ncn2)CC1 [Compound C3, reference compound] has an IC50 (BT474; [2]) of 0.14 µM, an IC50 (BT474; [3]) of 0.056 µM and an IC50 (MDA-MB-453; [4]) of 1.22 µM. It also gave an IC50 (MDA-MB-453; [5]) of 0.16 µM, an IC50 (MDA-MB-468; [6]) of 0.044 µM and an IC50 (MDA-MB-468; [7]) of 0.0074 µM. For the same compound, the IC50 (Hep G2; [8]) was greater than 10 µM, the IC50 (Hep G2; [9]) was 3.26 µM and the IC50 (Huh1; [10]) was 1.92 µM. It also gave an IC50 (Huh1; [11]) of 0.085 µM, an IC50 (Huh7; [12]) of 0.23 µM and an IC50 (Huh7; [13]) of 0.073 µM. The IC50 (SNU398; [14]) was 0.83 µM, the IC50 (SNU398; [15]) was 0.41 µM and the IC50 (SNU475; [16]) was 0.66 µM. It also gave an IC50 (SNU475; [17]) of 0.86 µM, an IC50 (MHCC-97H; [18]) of 0.089 µM and an IC50 (MHCC-97H; [19]) of 0.086 µM. For the same compound, the IC50 (EBC-1; [20]) was 0.062 µM, the IC50 (EBC-1; [21]) was 0.057 µM and the IC50 (HCC827; [22]) was 0.34 µM. The IC50 (HCC827; [23]) was 0.5 µM, the plasma clearance [1] was 2.13 L/h/kg and the Vd [1] was 2.17 ± 0.0643 L/kg. It also gave an AUC(0-t) [1] of 1.4 ± 0.601 µg·h/mL, a Cmax [1] of 0.364 ± 0.0825 µg/mL and a Tmax [1] of 1.67 ± 0.577 h. The bioavailability [1] was 30.5 ± 13% and the half-life [1] was 1.5 ± 0.123 h.
